Results taken from patent US8920819B2, “Delivery of hydrophilic drugs” (University College London, priority 2009, dated 2014).

Experiments:
[1] = HPLC quantification of the peptide content of the formulations; assay type: physicochemical; details: formulations for oral administration, not filtered
Source text: Formulations were not filtered.
The formulations were left overnight in the fridge and prior to intravenous administration were filtered (0.8 μm, 13 mm, Acrodisc Syringe Filter, Super Low Protein Binding Non-Pyrogenic Membrane, PALL Life Sciences). A clear filtrate was obtained for Leucine^[5]-Enkephalin and Leucine^[5]-Enkephalin and GCPQ and a translucent liquid was obtained for Palmitoylated Leucine^[5]-Enkephalin (TPLENK) and GCPQ. The administered intravenous volume of the formulations was set to a maximum of 0.2 ml per mouse. […] The maximum volume was dosed for placebo (NaCl, 0.9% w/v) receiving mice.
Polymer dispersions with Leucine^[5]-Enkephalin (LENK) or Palmitoylated Leucine^[5]-Enkephalin (TPLENK) were dissolved in mobile phase and analysed by HPLC. Samples were chromatographed over a reverse phase HPLC Sunfire C18 column (5 μm, 4.6 mm×250 mm) with a guard column attached [Waters Sunfire C18 (5 μm, 4.6 mm×10 mm)], using a Waters™ 515 HPLC pump connected to a Water™ 717 plus Autosampler with a Waters™ 486 Tunable Absorbance Detector. The mobile phase consisted of 82% 50 mM acetate buffer and 18% acetonitrile (pH 5.8). Unless otherwise indicated, samples were detected at 280 nm. The flow rate was set at 1 mL min^−1 at 35° C. and an injection volume of 40 μL was used. […] Empower software I was used for data analysis. […]

CD-1 mice [2] = assay: Antinociception, tail flick warm water bioassay, oral administration; assay type: in vivo, ICR (CD-1) male out bred mice; details: 70 mg Kg^-1 Leucine[5]-Enkephalin (L, LG) or 100 mg Kg^-1 TPLENK (PG), out of 16 mice
Experimental: (§1) ICR (CD-1) male out bred mice (22-28 g, 4-5 weeks old, Harlan, Oxon, UK) were used. The animals were housed in groups of 5 in plastic cages in controlled laboratory conditions with ambient temperature and humidity maintained at ˜22° C. and 60% with a 12-hour light and dark cycle (lights on at 8:00 and off at 20:00). Food and water were available ad libitum and the animals acclimatised for 5-7 days, prior to any experiments, in the Animal House, School of Pharmacy, University of London (London, UK). Animals were fasted overnight for oral delivery experiments. Animals were only used once and were acclimatised at the testing environment for at least 20 hours prior to testing. […]
Double de-ionised filtered (0.2 μm, 33 mm Millex GP syringe driven filter unit, PES membrane for sterilisation of aqueous solutions) water was used as the disperse phase. […] The administered volume was adjusted based on HPLC quantification of LENK and TPLENK and the body weight of each animal. […]
Antinociception was assessed in mice using the tail flick warm water bioassay (D'Amour and Smith 1941; Mogil et al. 1999). […] The response latency times, in centiseconds, recorded for each mouse to withdraw its tail by a “sharp flick” were recorded using a digital stopwatch capable of measuring 1/100th of a second. […] Briefly, percent antinociception was calculated as 100% ×(test latency-baseline latency)/(10 seconds−baseline latency). […]

CD-1 mice [3] = assay: Antinociception, tail flick warm water bioassay, intravenous administration; assay type: in vivo, ICR (CD-1) male out bred mice; details: 14 mg Kg^-1 Leucine[5]-Enkephalin (L, LG) or 20 mg Kg^-1 TPLENK (PG), out of 8 mice
Experimental: as §1, with “60% respectively” for “60%”, “were” for “were fasted overnight for oral delivery experiments. Animals were”, “acclimatised in” for “acclimatised at”
Sodium Chloride 0.9% (pH 7.4) was used as the disperse phase. […] The administered volume was adjusted based on HPLC quantification of Leucine^[5]-Enkephalin and TPLENK and the body weight of each animal. […]
Antinociception was assessed in mice using the tail flick warm water bioassay (D'Amour and Smith 1941; Mogil et al. 1999). […] The response latency times, in centiseconds, recorded for each mouse to withdraw its tail by a “sharp flick” were recorded using a digital stopwatch capable of measuring 1/100th of a second. […] Mice not responding within 5 sec were excluded from further testing (Baseline cut-off=5 seconds) and the baseline latency was measured for all mice 2 hours prior testing. […]
All results were expressed as mean±standard error (i.e. SE: SD/√n). […]

[4] = Pharmacokinetics after oral administration; plasma and brain Leucine[5]-Enkephalin by radioimmunoassay; assay type: in vivo, ICR (CD-1) male out bred mice; details: mice
Experimental: ICR (CD-1) male out bred mice (18-24 g, 4 weeks old, Harlan, Oxon, UK) were used. The animals were housed in groups of 5 in plastic cages in controlled laboratory conditions with ambient temperature and humidity maintained at ˜22° C. and 60% with a 12-hour light and dark cycle (lights on at 7:00 and off at 19:00). Food and water were available ad libitum and the animals acclimatised for 5-7 days prior to any experiments in the Animal House, School of Pharmacy, University of London (London, UK). Animals were fasted overnight for oral delivery experiments. Animals were only used once and were acclimatised at the testing environment for at least 1 hour prior to testing.
Syringes were attached to 19-20G commercial gavage needles (2-3 cm long) for oral administration.
Double de-ionised filtered (0.2 μm, 33 mm Millex GP syringe driven filter unit, PES membrane for sterilisation of aqueous solutions) water was used as the disperse phase for the oral formulations. […] All formulations were prepared by vortexing (WhirliMixer, Fisherbrand) and then by probe sonication (MSE Soniprep 150) with the instrument set at 50% of its maximum output for 15 minutes on ice. The formulations were left overnight in the fridge; the administered volume was set to a maximum of 0.2 ml per mouse. The administered volume was adjusted based on the HPLC quantification of LENK and TPLENK and the body weight of each animal. The maximum volume was dosed for placebo (H2O) receiving mice.
Blood samples (0.4-0.8 mls per mouse) were collected into a chilled syringe and transferred into evacuated sterile spray coated (with tripotassium ethylenediamine tetraacetic acid—3.6 mg) medical grade PET tubes (3×75 mm K3E Vacutainer©, BD Biosciences, UK) and maintained on ice (4° C.) until centrifugation. There is no dilution effect in spray coated tubes. Plasma was obtained as the supernatant after centrifugation of blood samples at 1,600 g or 4800 rpm for 15 minutes at 4° C. with a Hermle Z323 centrifuge (Hermle Laborteschink GmbH, Germany) and was pipetted into 1.5 mL centrifuge tubes and stored at −70° C. for later use.
Brain tissue minus the cerebellum (0.25-0.35 g) recovered from mice was immediately frozen in liquid nitrogen (−80° C.) until they were homogenised. The brain weight was recorded for each individual animal. After thawing tissues were boiled for 10 minutes in 30 volumes of a mixture of 1M of acetic acid, 0.02M of hydrochloric acid and 0.1% 2-mercaptoethanol (De Ceballos et al. 1991; Ahmed et al. 1994; Wu et al. 2005). The tissues were homogenised with 80 strokes per minute for half a minute with a glass 3 mL homogeniser (Jencons-PLS, England). […]

For `CC(C)C[C@H](NC(=O)[C@H](Cc1ccccc1)NC(=O)CNC(=O)CNC(=O)[C@@H](N)Cc1ccc(O)cc1)C(=O)O` [L, Leucine^[5]-Enkephalin], the “peptide content of the formulations (HPLC)” value [1] was 99.9%, the “analgesic responders (response 2 or more times the baseline latency)” value (CD-1 mice [2]) was 31.25% and the “mice reaching maximal possible latencies” value (CD-1 mice [2]; cut-off 10 seconds) was 6.25%. For the same compound, the “analgesic responders (response 2 or more times the baseline latency)” value (CD-1 mice [3]) was 37.5%, the “mice reaching maximal possible latencies” value (CD-1 mice [3]; cut-off 10 seconds) was 0% and the “time of peak Leucine[5]-Enkephalin concentration in the brain tissue” value ([4]; 70 mg Kg^-1 Leucine[5]-Enkephalin (L, LG) or 100 mg Kg^-1 TPLENK (PG), brain) was 4 h. For the same compound, the “peak Leucine[5]-Enkephalin concentration in the brain tissue” value ([4]; 70 mg Kg^-1 Leucine[5]-Enkephalin (L, LG) or 100 mg Kg^-1 TPLENK (PG), brain, at 4 hours) was 0.695 ng/g, the “peak plasma concentration of Leucine[5]-Enkephalin” value ([4]; 70 mg Kg^-1 Leucine[5]-Enkephalin (L, LG) or 100 mg Kg^-1 TPLENK (PG), plasma) was 29.3 ng 10^−1mL^−1 and the Tmax ([4]; male, ICR (CD-1), mouse, 70 mg Kg^-1 Leucine[5]-Enkephalin, plasma, read-out: time of peak plasma concentration of Leucine[5]-Enkephalin) was 1 h.
